Test results reported in US7041698B2, “Hepatitis C virus inhibitors” (Bristol-Myers Squibb Company, priority 2002, dated 2006).
Read-outs that look alike come from different tables or passages of the source.

What was measured:
[1] = target: T1, HCV NS3/4A protease complex (UniProt P27958, C1454S/C1711G, species not given); assay: Recombinant HCV NS3/4A protease complex FRET peptide assay (strain not stated); type: biochemical
T1 construct: fused on or other part: Three-lysine solubilising tail at the C-terminus of NS4A

[2] = system: HCV replicon in Huh7 cells; assay: HCV replicon cell-based assay; set-up: species or system HCV strain 1B; settings: Hepatitis C virus, Huh-7, 96 h, HCV replicon, 4 days, read-out: EC50 range
Summary of the method: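 Huh7 cells carrying a genotype 1b subgenomic replicon (NS3-NS5B, neo) treated 4 days at 37° C with compound (0.5% DMSO final). NS3 protease activity read in lysates with 10 μM FRET peptide (340/490 nm, kinetic), giving EC50. Confirmed by Taqman qRT-PCR of HCV RNA and a Renilla luciferase replicon.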

[3] = HCV NS3/4A protease enzyme assay, read-out: IC50 range
[4] = read-out: IC50 range, HCV NS3/4A protease enzyme assay

Row | SMILES | IC50 [1, 3] [nM] | EC50 [2] [nM] | IC50 [1, 4] [nM]
1 | C=CC1C[C@]1(NC(=O)[C@@H]1C[C@@H](OC(=O)Nc2cccc(C(=O)OC)c2)CN1C(=O)[C@@H](NC(=O)OC(C)(C)C)C(C)(C)C)C(=O)NS(=O)(=O)C1CC1 (stereo partly drawn) [Compound 40, BocNH-P3(t-BuGly)-P2(Hyp(O—CO(NH—(3-benzoic acid methyl ester))))-P1(1R,2S VinylAcca)—CONHSO2Cyclopropane] | < 100 | 1000 to 10000 | –
2 | C=CC1C[C@]1(NC(=O)[C@@H]1C[C@@H](OC(=O)Nc2ccc(OC)cc2[N+](=O)[O-])CN1C(=O)[C@@H](NC(=O)OC(C)(C)C)C(C)(C)C)C(=O)NS(=O)(=O)C1CC1 (stereo partly drawn) [Compound 41, BocNH-P3(t-BuGly)-P2(Hyp(O—CO(NH—(4-Methoxy-2-nitro-phenyl))))-P1(1R,2S VinylAcca)—CONHSO2Cyclopropane] | < 100 | 1000 to 10000 | –
3 | C=CC1C[C@]1(NC(=O)[C@@H]1C[C@@H](OC(=O)Nc2cccc(C)c2C)CN1C(=O)[C@@H](NC(=O)OC(C)(C)C)C(C)(C)C)C(=O)NS(=O)(=O)C1CC1 (stereo partly drawn) [Compound 42, BocNH-P3(t-BuGly)-P2(Hyp(O—CO(NH—(2,3-Dimethyl-phenyl))))-P1(1R,2S VinylAcca)—CONHSO2Cyclopropane] | < 100 | 1000 to 10000 | –
4 | C=CC1C[C@]1(NC(=O)[C@@H]1C[C@@H](OC(=O)N(C)C)CN1C(=O)[C@@H](NC(=O)OC(C)(C)C)C(C)(C)C)C(=O)NS(=O)(=O)C1CC1 (stereo partly drawn) [Compound 43, BocNH-P3(t-BuGly)-P2(Hyp(O—CO(N,N-dimethyl)))-P1(1R,2S VinylAcca)—CONHSO2Cyclopropane] | – | > 10000 | 100 to 1000
5 | C=CC1C[C@]1(NC(=O)[C@@H]1C[C@@H](OC(=O)N(CC)CC)CN1C(=O)[C@@H](NC(=O)OC(C)(C)C)C(C)(C)C)C(=O)NS(=O)(=O)C1CC1 (stereo partly drawn) [Compound 44, BocNH-P3(t-BuGly)-P2(Hyp(O—CO(N,N-diethyl)))-P1(1R,2S VinylAcca)—CONHSO2Cyclopropane] | – | 1000 to 10000 | < 100
6 | C=CC1C[C@]1(NC(=O)[C@@H]1C[C@@H](OC(=O)N(C(C)C)C(C)C)CN1C(=O)[C@@H](NC(=O)OC(C)(C)C)C(C)(C)C)C(=O)NS(=O)(=O)C1CC1 (stereo partly drawn) [Compound 45, BocNH-P3(t-BuGly)-P2(Hyp(O—CO(N,N-diisopropyl)))-P1(1R,2S VinylAcca)—CONHSO2Cyclopropane] | – | 100 to 1000 | < 100
7 | C=CC1C[C@]1(NC(=O)[C@@H]1C[C@@H](OC(=O)N(CCCC)CCCC)CN1C(=O)[C@@H](NC(=O)OC(C)(C)C)C(C)(C)C)C(=O)NS(=O)(=O)C1CC1 (stereo partly drawn) [Compound 46, BocNH-P3(t-BuGly)-P2(Hyp(O—CO(N,N-dibutyl)))-P1(1R,2S VinylAcca)—CONHSO2Cyclopropane] | 100 to 1000 | 1000 to 10000 | –
8 | C=CC1C[C@]1(NC(=O)[C@@H]1C[C@@H](OC(=O)Nc2cccc(C(C)=O)c2)CN1C(=O)[C@@H](NC(=O)OC(C)(C)C)C(C)(C)C)C(=O)NS(=O)(=O)C1CC1 (stereo partly drawn) [Compound 47, BocNH-P3(t-BuGly)-P2(Hyp(O—CO(NH—(3-acetyl-phenyl))))-P1(1R,2S VinylAcca)—CONHSO2Cyclopropane] | 100 to 1000 | > 10000 | –
9 | C=CC1C[C@]1(NC(=O)[C@@H]1C[C@@H](OC(=O)Nc2ccccc2C(=O)OC(C)C)CN1C(=O)[C@@H](NC(=O)OC(C)(C)C)C(C)(C)C)C(=O)NS(=O)(=O)C1CC1 (stereo partly drawn) [Compound 48, BocNH-P3(t-BuGly)-P2(Hyp(O—CO(NH—(2-benzoic acid isopropyl ester))))-P1(1R,2S VinylAcca)—CONHSO2Cyclopropane] | < 100 | 100 to 1000 | –
10 | C=CC1C[C@]1(NC(=O)[C@@H]1C[C@@H](OC(=O)Nc2sc3c(c2C(=O)OCC)CCCC3)CN1C(=O)[C@@H](NC(=O)OC(C)(C)C)C(C)(C)C)C(=O)NS(=O)(=O)C1CC1 (stereo partly drawn) [Compound 49, BocNH-P3(t-BuGly)-P2(Hyp(O—CO(NH-2-(4,5,6,7-tetrahydro-benzo[b]thiophene-3-carboxylic acid ethyl ester))))-P1(1R,2S VinylAcca)—CONHSO2Cyclopropane] | 100 to 1000 | 1000 to 10000 | –
11 | C=CC1C[C@]1(NC(=O)[C@@H]1C[C@@H](OC(=O)Nc2cc(C)cc(C)c2)CN1C(=O)[C@@H](NC(=O)OC(C)(C)C)C(C)(C)C)C(=O)NS(=O)(=O)C1CC1 (stereo partly drawn) [Compound 50, BocNH-P3(t-BuGly)-P2(Hyp(O—CO(NH—(3,5-dimethyl-phenyl))))-P1(1R,2S VinylAcca)—CONHSO2Cyclopropane] | < 100 | 1000 to 10000 | –
12 | C=CC1C[C@]1(NC(=O)[C@@H]1C[C@@H](OC(=O)Nc2ccccc2F)CN1C(=O)[C@@H](NC(=O)OC(C)(C)C)C(C)(C)C)C(=O)NS(=O)(=O)C1CC1 (stereo partly drawn) [Compound 51, BocNH-P3(t-BuGly)-P2(Hyp(O—CO(NH—(2-fluoro-phenyl))))-P1(1R,2S VinylAcca)—CONHSO2Cyclopropane] | 100 to 1000 | 1000 to 10000 | –
13 | C=CC1C[C@]1(NC(=O)[C@@H]1C[C@@H](OC(=O)Nc2c(F)cccc2F)CN1C(=O)[C@@H](NC(=O)OC(C)(C)C)C(C)(C)C)C(=O)NS(=O)(=O)C1CC1 (stereo partly drawn) [Compound 52, BocNH-P3(t-BuGly)-P2(Hyp(O—CO(NH—(2,6-difluorophenyl))))-P1(1R,2S VinylAcca)—CONHSO2Cyclopropane] | 100 to 1000 | > 10000 | –
14 | C=CC1C[C@]1(NC(=O)[C@@H]1C[C@@H](OC(=O)Nc2ccccc2Cl)CN1C(=O)[C@@H](NC(=O)OC(C)(C)C)C(C)(C)C)C(=O)NS(=O)(=O)C1CC1 (stereo partly drawn) [Compound 53, BocNH-P3(t-BuGly)-P2(Hyp(O—CO(NH—(2-chloro-phenyl))))-P1(1R,2S VinylAcca)—CONHSO2Cyclopropane] | < 100 | 1000 to 10000 | –
15 | C=CC1C[C@]1(NC(=O)[C@@H]1C[C@@H](OC(=O)Nc2c(Cl)cccc2Cl)CN1C(=O)[C@@H](NC(=O)OC(C)(C)C)C(C)(C)C)C(=O)NS(=O)(=O)C1CC1 (stereo partly drawn) [Compound 54, BocNH-P3(t-BuGly)-P2(Hyp(O—CO(NH—(2,6-dichloro-phenyl))))-P1(1R,2S VinylAcca)—CONHSO2Cyclopropane] | 100 to 1000 | 1000 to 10000 | –
16 | C=CC1C[C@]1(NC(=O)[C@@H]1C[C@@H](OC(=O)Nc2ccccc2OC)CN1C(=O)[C@@H](NC(=O)OC(C)(C)C)C(C)(C)C)C(=O)NS(=O)(=O)C1CC1 (stereo partly drawn) [Compound 55, BocNH-P3(t-BuGly)-P2(Hyp(O—CO(NH—(2-methoxy-phenyl))))-P1(1R,2S VinylAcca)—CONHSO2Cyclopropane] | < 100 | 100 to 1000 | –
17 | C=CC1C[C@]1(NC(=O)[C@@H]1C[C@@H](OC(=O)Nc2ccccc2OCC)CN1C(=O)[C@@H](NC(=O)OC(C)(C)C)C(C)(C)C)C(=O)NS(=O)(=O)C1CC1 (stereo partly drawn) [Compound 56, BocNH-P3(t-BuGly)-P2(Hyp(O—CO(NH—(2-ethoxy-phenyl))))-P1(1R,2S VinylAcca)—CONHSO2Cyclopropane] | < 100 | 100 to 1000 | –
18 | C=CC1C[C@]1(NC(=O)[C@@H]1C[C@@H](OC(=O)Nc2ccccc2C)CN1C(=O)[C@@H](NC(=O)OC(C)(C)C)C(C)(C)C)C(=O)NS(=O)(=O)C1CC1 (some centres unmarked) [Compound 57] | 100 to 1000 | 1000 to 10000 | –
19 | C=CC1C[C@]1(NC(=O)[C@@H]1C[C@@H](OC(=O)Nc2ccccc2CC)CN1C(=O)[C@@H](NC(=O)OC(C)(C)C)C(C)(C)C)C(=O)NS(=O)(=O)C1CC1 (stereo partly drawn) [Compound 59, BocNH-P3(t-BuGly)-P2(Hyp(O—CO(NH—(2-ethyl-phenyl))))-P1(1R,2S VinylAcca)—CONHSO2Cyclopropane] | 100 to 1000 | 1000 to 10000 | –
20 | C=CC1C[C@]1(NC(=O)[C@@H]1C[C@@H](OC(=O)Nc2ccccc2[N+](=O)[O-])CN1C(=O)[C@@H](NC(=O)OC(C)(C)C)C(C)(C)C)C(=O)NS(=O)(=O)C1CC1 (stereo partly drawn) [Compound 60, BocNH-P3(t-BuGly)-P2(Hyp(O—CO(NH—(2-nitro-phenyl))))-P1(1R,2S VinylAcca)—CONHSO2Cyclopropane] | < 100 | 100 to 1000 | –
21 | C=CC1C[C@]1(NC(=O)[C@@H]1C[C@@H](OC(=O)Nc2c(C)cccc2Cl)CN1C(=O)[C@@H](NC(=O)OC(C)(C)C)C(C)(C)C)C(=O)NS(=O)(=O)C1CC1 (stereo partly drawn) [Compound 63, BocNH-P3(t-BuGly)-P2(Hyp(O—CO(NH—(2-chloro-6-methyl))))-P1(1R,2S VinylAcca)—CONHSO2Cyclopropane] | 100 to 1000 | 1000 to 10000 | –
22 | C=CC1C[C@]1(NC(=O)[C@@H]1C[C@@H](OC(=O)Nc2ccccc2C(=O)OCCCC)CN1C(=O)[C@@H](NC(=O)OC(C)(C)C)C(C)(C)C)C(=O)NS(=O)(=O)C1CC1 (stereo partly drawn) [Compound 64, BocNH-P3(t-BuGly)-P2(Hyp(O—CO(NH—(2-benzoic acid butyl ester))))-P1(1R,2S VinylAcca)—CONHSO2Cyclopropane] | < 100 | 100 to 1000 | –
23 | C=CC1C[C@]1(NC(=O)[C@@H]1C[C@@H](OC(=O)Nc2ccccc2I)CN1C(=O)[C@@H](NC(=O)OC(C)(C)C)C(C)(C)C)C(=O)NS(=O)(=O)C1CC1 (stereo partly drawn) [Compound 65, BocNH-P3(t-BuGly)-P2(Hyp(O—CO(NH—(2-iodo-phenyl))))-P1(1R,2S VinylAcca)—CONHSO2Cyclopropane] | < 100 | 100 to 1000 | –
24 | C=CC1C[C@]1(NC(=O)[C@@H]1C[C@@H](OC(=O)Nc2ccccc2CCC)CN1C(=O)[C@@H](NC(=O)OC(C)(C)C)C(C)(C)C)C(=O)NS(=O)(=O)C1CC1 (stereo partly drawn) [Compound 66, BocNH-P3(t-BuGly)-P2(Hyp(O—CO(NH—(2-propyl-phenyl))))-P1(1R,2S VinylAcca)—CONHSO2Cyclopropane] | < 100 | 1000 to 10000 | –
25 | C=CC1C[C@]1(NC(=O)[C@@H]1C[C@@H](OC(=O)Nc2ccccc2Oc2ccccc2)CN1C(=O)[C@@H](NC(=O)OC(C)(C)C)C(C)(C)C)C(=O)NS(=O)(=O)C1CC1 (stereo partly drawn) [Compound 67, BocNH-P3(t-BuGly)-P2(Hyp(O—CO(NH—(2-phenoxy-phenyl))))-P1(1R,2S VinylAcca)—CONHSO2Cyclopropane] | < 100 | 100 to 1000 | –
